From patent US6383774B1, “Parasitic nematode transglutaminase, nucleic acid molecules and uses thereof” (Heska Corporation, priority 1996, dated 2002)
Values joined by “and” are separate entries in the source; they are usually repeats but may differ in a detail not shown here. Equal values may be shown once. “Also recorded” adds a separate entry of the source. Read-outs that look alike come from different tables or passages of the source.

Key:
[1] = system: D. immitis transglutaminase; experiment: Effect of ions, inhibitors and other reagents on activity of transglutaminase purified from adult D. immitis worms (microtiter plate assay); format: biochemical
PHIS-PDiTG468 [2] = format: biochemical, D. immitis
PHIS-PDiTG468 [3] = format: biochemical, D. immitis; remark: listed apart in the source
PDI from bovine liver = biological target: T1, PDI from bovine liver (Bos taurus, UniProt P05307); experiment: Effect of transglutaminase inhibitors on PDI activity of purified bovine liver PDI (scrambled RNase reactivation); format: biochemical; details: inhibitor 1 mM
T1 sequence (P05307 21-510): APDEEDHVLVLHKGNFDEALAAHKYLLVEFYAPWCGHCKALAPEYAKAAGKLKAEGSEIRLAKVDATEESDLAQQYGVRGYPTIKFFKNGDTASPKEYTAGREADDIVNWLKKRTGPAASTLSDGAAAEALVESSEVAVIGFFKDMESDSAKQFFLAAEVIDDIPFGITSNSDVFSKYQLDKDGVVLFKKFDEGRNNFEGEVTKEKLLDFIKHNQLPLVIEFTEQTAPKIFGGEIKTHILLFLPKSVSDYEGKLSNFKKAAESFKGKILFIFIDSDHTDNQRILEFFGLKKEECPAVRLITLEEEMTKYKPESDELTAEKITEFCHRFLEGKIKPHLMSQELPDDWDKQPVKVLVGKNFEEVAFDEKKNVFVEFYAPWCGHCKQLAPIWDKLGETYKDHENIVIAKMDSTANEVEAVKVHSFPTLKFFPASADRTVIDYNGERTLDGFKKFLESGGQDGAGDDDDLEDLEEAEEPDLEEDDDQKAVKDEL

D. immitis L3 larvae = experiment: D. immitis L3 larval molting in in vitro larval culture; format: cell-based
[4] = biological target: bovine protein disulfide isomerase (PDI) (Bos taurus, UniProt P05307)
dimethylcasein = format: biochemical
[5] = reagent 10 mM, with 10 mM CaCl2 and 10 mM dithiothreitol
[6] = reagent 1 mM, with 10 mM CaCl2 and 10 mM dithiothreitol
[7] = 50 μM, inhibitor present during first 24 hr of L3 culture
[8] = 100 μM, inhibitor present during first 24 hr of L3 culture

## O[C@H](CS)[C@H](O)CS (racemic) [Dithiothreitol]
[1]
  Effect on activity of transglutaminase purified from adult D. immitis worms (in words): increased the enzyme activity substantially
PHIS-PDiTG468 [2]
  Effect on transglutaminase activity of PHIS-PDiTG468 (in words): more active in the absence of DTT

## N.N.O=S(=O)(O)O [(NH4)2SO4]
[1]; [5]
  Transglutaminase activity (% of control): 0 % of control

## NCCSSCCN [Cystamine]
PHIS-PDiTG468 [3]
  PDI Activity (Mean ± SD) of PHIS-PDiTG468: 33.3 ± 1.8 ΔA min^−1
PDI from bovine liver
  PDI Activity (Mean ± SD) of PDI: 26.4 ± 2.9 ΔA min^−1
[1]
  Effect on activity of transglutaminase purified from adult D. immitis worms (in words): inhibited competitively
[1]; [6]
  Transglutaminase activity (% of control): 52 % of control
PHIS-PDiTG468 [2]
  Activity (mU ± SEM): 46.4 ± 4.6 mU and 28.3 ± 2.2 mU
  Effect on transglutaminase activity of PHIS-PDiTG468 (in words): inhibited the transglutaminase activity
D. immitis L3 larvae; 25 μM, L3 cultured 6 days
  Percent molted: 61%
D. immitis L3 larvae; 50 μM, L3 cultured 6 days
  Percent molted: 62%
D. immitis L3 larvae; [7]
  Percent molted: 68%
D. immitis L3 larvae; 75 μM, L3 cultured 6 days
  Percent molted: 17%
D. immitis L3 larvae; 85 μM, L3 cultured 6 days
  Percent molted: 1%
D. immitis L3 larvae; 100 μM final concentration
  Inhibition of molting of L3 to L4 (in words): completely inhibited the molting process
D. immitis L3 larvae; 100 μM, L3 cultured 6 days
  Percent molted: 0%
D. immitis L3 larvae; [8]
  Percent molted: 13%
D. immitis L3 larvae; added on day 2 during the culture
  Inhibition of larval molting (in words): very effective inhibitor of larval molting

## O=C(O)CN(CCN(CC(=O)O)CC(=O)O)CC(=O)O [EDTA]
[4]
  Effect on transglutaminase activity of bovine PDI (in words): inhibited
PHIS-PDiTG468 [2]
  Effect on transglutaminase activity of PHIS-PDiTG468 (in words): inhibited

## O=C(O)CN(CCOCCOCCN(CC(=O)O)CC(=O)O)CC(=O)O [EGTA]
[1]
  Effect on activity of transglutaminase purified from adult D. immitis worms (in words): completely blocked the activity
[1]; [5]
  Transglutaminase activity (% of control): 0 % of control
PHIS-PDiTG468 [2]
  Effect on transglutaminase activity of PHIS-PDiTG468 (in words): inhibited

## Nc1nc2c(ncn2[C@@H]2O[C@H](COP(=O)(O)OP(=O)(O)OP(=O)(O)O)[C@@H](O)[C@H]2O)c(=O)[nH]1 [GTP]
[1]
  Effect on activity of transglutaminase purified from adult D. immitis worms (in words): not affected adversely
[1]; reagent 0.1 mM, with 10 mM CaCl2 and 10 mM dithiothreitol
  Transglutaminase activity (% of control): 100 % of control
[1]; [6]
  Transglutaminase activity (% of control): 95 % of control

## NC(=O)CI [Iodoacetamide]
[1]
  Effect on activity of transglutaminase purified from adult D. immitis worms (in words): decreased the activity drastically
PHIS-PDiTG468 [2]
  Effect on transglutaminase activity of PHIS-PDiTG468 (in words): inhibited the transglutaminase activity
D. immitis L3 larvae
  Inhibition of molting of L3 to L4 (in words): able to inhibit

## [Cl-].[K+] [KCl]
[1]; reagent 500 mM, with 10 mM CaCl2 and 10 mM dithiothreitol
  Transglutaminase activity (% of control): 54 % of control

## CN(C)c1cccc2c(S(=O)(=O)NCCCCCN)cccc12 [Monodansyl cadaverine]
PHIS-PDiTG468 [3]
  PDI Activity (Mean ± SD) of PHIS-PDiTG468: 41.2 ± 2.9 ΔA min^−1
PDI from bovine liver
  PDI Activity (Mean ± SD) of PDI: 24.0 ± 2.0 ΔA min^−1
[1]
  Effect on activity of transglutaminase purified from adult D. immitis worms (in words): inhibited competitively
[1]; [6]
  Transglutaminase activity (% of control): 9 % of control
PHIS-PDiTG468 [2]
  Activity (mU ± SEM): 48.3 ± 4.0 mU and 44.6 ± 5.1 mU
  Effect on transglutaminase activity of PHIS-PDiTG468 (in words): inhibited the transglutaminase activity
D. immitis L3 larvae; 25 μM, L3 cultured 6 days
  Percent molted: 75%
D. immitis L3 larvae; 50 μM, L3 cultured 6 days
  Percent molted: 63%
D. immitis L3 larvae; [7]
  Percent molted: 64%
D. immitis L3 larvae; 75 μM, L3 cultured 6 days
  Percent molted: 28%
D. immitis L3 larvae; 85 μM, L3 cultured 6 days
  Percent molted: 2.5%
D. immitis L3 larvae; 100 μM final concentration, listed as MDC
  Inhibition of molting of L3 to L4 (in words): completely inhibited the molting process; also recorded: completely inhibits
D. immitis L3 larvae; 100 μM, L3 cultured 6 days
  Percent molted: 0%
D. immitis L3 larvae; [8]
  Percent molted: 41%
D. immitis L3 larvae; day 6, electron microscopy study
  Molting of larvae cultured in the presence of MDC (in words): failed to molt even on day 6

## NCCCCN [Putrescine]
[1]
  Effect on activity of transglutaminase purified from adult D. immitis worms (in words): inhibited competitively
[1]; [6]
  Transglutaminase activity (% of control): 14 % of control
PHIS-PDiTG468 [2]
  Activity (mU ± SEM): 36.5 ± 3.9 mU and 35.3 ± 4.3 mU
  Effect on transglutaminase activity of PHIS-PDiTG468 (in words): inhibited the transglutaminase activity

## OCCS [mercaptoethanol]
[1]
  Effect on activity of transglutaminase purified from adult D. immitis worms (in words): increased the enzyme activity substantially

## Nα-CBZ-Gln-Gly
[1]
  Effect on activity of transglutaminase purified from adult D. immitis worms (in words): affects the enzyme activity only slightly
  Transglutaminase activity (% of control): 92 % of control

## Tris-HCl
[1]
  Effect on activity of transglutaminase purified from adult D. immitis worms (in words): reversibly inhibited the enzyme
  Transglutaminase activity (% of control): 66 % of control and 40 % of control

B1: PDI: bovine protein disulfide isomerase, purified from bovine liver, available from Sigma (protein, UniProt P05307 21-510, looked up)
Protein disulfide-isomerase: T1 sequence (P05307 21-510)
dimethylcasein
  Temperature of optimum transglutaminase activity: 55 °C
dimethylcasein; 37 °C
  Activity (mU ± SEM): 30.3 ± 1.0 mU
dimethylcasein; 45 °C
  Activity (mU ± SEM): 47.2 ± 2.5 mU
dimethylcasein; 55 °C
  Activity (mU ± SEM): 92.1 ± 4.3 mU
dimethylcasein; 65 °C
  Activity (mU ± SEM): 67.0 ± 2.9 mU
